Measurements: ChEMBL document CHEMBL1201862, “PubChem BioAssay data set” (2004)
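Cells were grown in 96-well plates and exposed to each compound for 48 hours at five concentrations; endpoints were interpolated linearly between bracketing concentrations, or set to the highest concentration if not reached. GI50 = concentration required for 50% inhibition of growth.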 Active and inactive are the calls of the source. Rule as the data show it: active = GI50 up to about 1.1 µM and inactive = higher.

Columns and labels:
Test in all cases: NCI tumour cell line growth inhibition, 48 h
[1] = system: SNB-78
[2] = system: HOP-18
[3] = system: DMS-114
[4] = system: M19-MEL
[5] = system: DLD-1
[6] = system: LXFL 529
[7] = system: MDA-N
[8] = system: BT-549
[9] = system: RXF 631

| Compound | GI50 [1] | GI50 [3] | GI50 [4] | GI50 [5] | GI50 [6] | GI50 [7] | GI50 [8] | further results |
| --- | --- | --- | --- | --- | --- | --- | --- | --- |
| Clc1ccccc1C1=NN(c2ccccc2)C2c3cc(Br)ccc3OCC12 (stereo not given) | > 100 µM (inactive) | > 100 µM (inactive) | > 100 µM (inactive) | > 100 µM (inactive) | > 100 µM (inactive) | – | – | GI50 [2]: > 100 µM (inactive) |
| COC(=O)C1=COc2c(n(C)c3ccccc23)-c2ccccc21 | – | – | – | – | – | > 100 µM (inactive) | > 100 µM (inactive) | – |
| CN(/C(=N\O)c1ccccc1)c1ccccc1 | 28.4 µM (inactive) | 25.6 µM (inactive) | 78.2 µM (inactive) | 29.4 µM (inactive) | 34.8 µM (inactive) | – | – | GI50 [2]: < 0.01 µM (active) |
| C/C(=N\NS(=O)(=O)c1ccccc1)c1ccc(Cl)c(Cl)c1 | > 100 µM (inactive) | 39.2 µM (inactive) | 57.4 µM (inactive) | 41.8 µM (inactive) | 34.5 µM (inactive) | – | – | GI50 [2]: 49.8 µM (inactive) |
| COC(=O)c1cccc(COc2ccc([N+](=O)[O-])cc2Cl)c1 | – | – | – | – | – | – | > 100 µM (inactive) | – |
| CC(=O)Nc1ccc2c(c1)[nH]c(=O)c1cc(Cl)ccc12 | – | – | – | – | – | – | 25.8 µM (inactive) | – |
| COC1CC(n2cnc3c(N)ncnc32)OC1CO (stereo not given) | – | > 100 µM (inactive) | > 100 µM (inactive) | > 100 µM (inactive) | > 100 µM (inactive) | – | – | – |
| COc1nc(O)nc2c1C(c1ccc([N+](=O)[O-])cc1)c1c(OC)nc(O)nc1O2 | – | – | – | – | – | > 100 µM (inactive) | > 100 µM (inactive) | – |
| Nc1ccc(C(=O)/C=C/c2ccccc2O)cc1 | > 100 µM (inactive) | – | > 100 µM (inactive) | > 100 µM (inactive) | > 100 µM (inactive) | – | – | GI50 [9]: > 100 µM (inactive) |
| Cc1[nH]c2ccccc2c1C1Cc2ccccc2N1C(=O)/C=C/C=C/c1ccccc1 (stereo not given) | > 100 µM (inactive) | > 100 µM (inactive) | > 100 µM (inactive) | > 100 µM (inactive) | > 100 µM (inactive) | – | – | – |
| NC(=O)CN1CC(C2=C(O)CN(CC(N)=O)C2=O)=CC1=O | – | – | – | – | – | – | > 100 µM (inactive) | – |
| C/C(CC(=O)Nc1ccc(C)c(C)c1)=N\NC(N)=S | > 100 µM (inactive) | > 100 µM (inactive) | – | > 100 µM (inactive) | > 100 µM (inactive) | – | – | GI50 [9]: > 100 µM (inactive) |
| Cn1c(=O)c(C(=O)NC23CC4CC(CC(C4)C2)C3)c(O)c2ccccc21 | 43.3 µM (inactive) | 45.6 µM (inactive) | 49.8 µM (inactive) | 50.7 µM (inactive) | 59.4 µM (inactive) | – | – | – |
| CCN1CC2(COC)C(O)CC(OC)C34C5CC6(O)C(OC)C=C(C5C6OC(=O)c5ccc(OC)c(OC)c5)C(C(OC)C23)C14 (stereo not given) | – | – | – | – | – | > 7.5 µM (inactive) | > 7.5 µM (inactive) | – |
| CC(C)NCCC(O)c1cc2ccccc2o1 (stereo not given) | – | – | – | – | – | > 100 µM (inactive) | > 100 µM (inactive) | – |
| COc1ncnc2c1cnn2Cc1cn(COCC(O)CO)nn1 (stereo not given) | – | – | – | – | – | > 100 µM (inactive) | > 100 µM (inactive) | – |
| CCOC(=O)C1C(=O)CC(C)(O)C(C(=O)OCC)C1c1ccc(N(C)C)cc1 (stereo not given) | – | – | – | – | – | – | > 100 µM (inactive) | – |
| COc1c(N2CCCCC2)c2c(=O)c3ccccc3oc2c2c3ccccc3n(C)c12 | – | – | – | – | – | 38.1 µM (inactive) | 98.6 µM (inactive) | – |
| c1ccc(Cc2cccc3cc(-c4ccc(-c5ccccc5)cc4)[nH]c23)cc1 | – | – | – | – | – | > 100 µM (inactive) | > 100 µM (inactive) | – |
| COc1ccc(N2C(=O)/C(=C\c3cccc(Oc4ccccc4)c3)S(=O)(=O)C2c2ccccc2)cc1 (stereo not given) | – | – | – | – | – | 19.1 µM (inactive) | 25.6 µM (inactive) | – |
| Cc1cc(N(CCC#N)CCC#N)ccc1/C=C(\NC(=O)/C=C/c1ccccc1)C(=O)N=[N+]=[N-] | 44.4 µM (inactive) | > 100 µM (inactive) | > 100 µM (inactive) | > 100 µM (inactive) | > 100 µM (inactive) | – | – | – |
| Cc1nc2c(=S)n(C)ncc2[nH]1 | – | – | – | – | – | > 100 µM (inactive) | > 100 µM (inactive) | – |
| CC(C)CC1C(=O)NCCC(NC(=O)C(N)Cc2ccc(O)cc2)C(=O)NC(Cc2ccccc2)C(=O)NC(Cc2ccccc2)NC1=O (stereo not given) | – | – | – | – | – | > 100 µM (inactive) | – | – |
| O=S(=O)(O)c1cc(/N=N/c2cc(S(=O)(=O)O)c3ccccc3c2O)ccc1/C=C/c1ccc(/N=N/c2cc(S(=O)(=O)O)c3ccccc3c2O)cc1S(=O)(=O)O | > 100 µM (inactive) | > 100 µM (inactive) | > 100 µM (inactive) | > 100 µM (inactive) | > 1000 µM (inactive) | 151 µM (inactive) | 284 µM (inactive) | GI50 [2]: > 100 µM (inactive) |
| CCC1c2[nH]c3ccccc3c2C[C@H]2C(=O)NC(Cc3ccccc3)C(=O)N12 (stereo not given in full) | – | – | – | – | – | 25.8 µM (inactive) | 22.4 µM (inactive) | – |
| OCc1ccccc1O[C@H]1O[C@H](CO)[C@@H](O)[C@H](O)[C@H]1O | – | – | – | – | – | > 100 µM (inactive) | > 100 µM (inactive) | – |
| O=CC(NC(=O)N(CCCl)N=O)C(O)C(O)C(O)CO (stereo not given) | – | 1040 µM (inactive) | – | > 1250 µM (inactive) | – | 312 µM (inactive) | 499 µM (inactive) | GI50 [2]: > 1250 µM (inactive) |
| Cc1cc(C)c2c(O)cc(-c3cccc(Cl)c3)nc2n1 | – | – | – | – | – | 0.0138 µM (active) | 1.59 µM (inactive) | – |
| CS(=O)(=O)c1ccc(C2=C(c3ccccc3)C(=O)OC2)cc1 [ROFECOXIB] | – | – | – | – | – | > 100 µM (inactive) | – | – |
